Values joined by “and” are separate entries in the source; they are usually repeats but may differ in a detail not shown here. Identical values can stand only once. Like-named read-outs stand apart in the source and are kept apart here.
How the values were obtained:
[1] = test system: patients with mild-moderate psoriasis; settings: end of 12 weeks; cited from earlier work
human keratinocytes = settings: cited from earlier work
PARP-1 [2] = biological target: T1, PARP-1 (Homo sapiens, UniProt P09874); experiment: PARP-1 inhibition in vitro (Park J, 2010); type: biochemical
[3] = test system: non-melanoma human skin cancers; settings: cited from earlier work
IL-8 = settings: keratinocytes; cited from earlier work
IL-6 = settings: NAM at 500 μm, the only dose studied; cited from earlier work
bullous pemphigoid = settings: oral 2 g/day with -cycline antibiotics; cited from earlier work
[4] = test system: melanosome transfer from melanocytes to keratinocytes; settings: cited from earlier work
[5] = cited from earlier work
[6] = test system: IL-1 beta, IL-6, IL-8 and TNF alpha; settings: endotoxin-induced model; cited from earlier work
[7] = test system: women with symmetrical pigmentation; settings: 5% and 2% NAM moisturizer; cited from earlier work
PARP-1 [8] = biological target: T1, PARP-1; settings: NAM 50 μM; cited from earlier work
[9] = oral dosage; cited from earlier work
actinic keratoses = settings: high oral dose, placebo-controlled; cited from earlier work
[10] = test system: AKs in transplant recipients; settings: cited from earlier work
melasma = settings: oral, over 12 weeks; cited from earlier work
[11] = Saturated solubility of corticosteroids in liquid silicones; type: physicochemical; settings: including caprylyl methicone
human SC = settings: 5% PHA in propylene glycol/myrystyl alcohol co-enhancer non-silicone cream; up to; cited from earlier work
murine flank skin = settings: 10% PHA applied to murine flank skin; cited from earlier work
[12] = cited from earlier work; remark: listed apart in the source
[13] = Solubility of diffusion coefficient enhancers in propylene glycol and caprylyl methicone; type: physicochemical; settings: 23-25° C.
Excerpt: As described previously, diffusion coefficient-enhancing excipients (DC enhancers) commonly comprise alcohol, acid or ester derivatives of C8-C22 hydrocarbons.
Conversely, lower carbon chain length acids and alcohols such as C8 and C10 alcohols and C8 and C10 acids may be considered to be far too soluble in hydrocarbyl methyl siloxanes including caprylyl methicone, such that their performance as diffusion coefficient-enhancing excipients would be adversely affected. Similarly, medium chain (for instance C14-C16) isopropyl esters are far too soluble in hydrocarbyl methyl siloxanes such as caprylyl methicone to allow performance as DC enhancers. For both of these classes of DC enhancer, up to 50% DC enhancer would be required to be at or near saturation in the non-volatile residual phase. In contrast, the C12-C14 acids and C14 alcohol have appropriate solubility in caprylyl methicone.
As an example of the outline design of a simple co-enhancer system comprising propylene glycol, and, for example, a C14 alcohol diffusion coefficient enhancer with caprylyl methicone, we might first consider that the concentration of propylene glycol and caprylyl methicone in the final composition (otherwise consisting of non-solvents) to be 25% of each. On this basis, the total amount of C14 alcohol to saturate both of these phases would be 2.44%/4+2.30%/4=1.185%, approximately 1.2%. […]

[14] = test system: acute radiation dermatitis; settings: topical cream; cited from earlier work

T1 sequence (P09874 whole entry, species assumed): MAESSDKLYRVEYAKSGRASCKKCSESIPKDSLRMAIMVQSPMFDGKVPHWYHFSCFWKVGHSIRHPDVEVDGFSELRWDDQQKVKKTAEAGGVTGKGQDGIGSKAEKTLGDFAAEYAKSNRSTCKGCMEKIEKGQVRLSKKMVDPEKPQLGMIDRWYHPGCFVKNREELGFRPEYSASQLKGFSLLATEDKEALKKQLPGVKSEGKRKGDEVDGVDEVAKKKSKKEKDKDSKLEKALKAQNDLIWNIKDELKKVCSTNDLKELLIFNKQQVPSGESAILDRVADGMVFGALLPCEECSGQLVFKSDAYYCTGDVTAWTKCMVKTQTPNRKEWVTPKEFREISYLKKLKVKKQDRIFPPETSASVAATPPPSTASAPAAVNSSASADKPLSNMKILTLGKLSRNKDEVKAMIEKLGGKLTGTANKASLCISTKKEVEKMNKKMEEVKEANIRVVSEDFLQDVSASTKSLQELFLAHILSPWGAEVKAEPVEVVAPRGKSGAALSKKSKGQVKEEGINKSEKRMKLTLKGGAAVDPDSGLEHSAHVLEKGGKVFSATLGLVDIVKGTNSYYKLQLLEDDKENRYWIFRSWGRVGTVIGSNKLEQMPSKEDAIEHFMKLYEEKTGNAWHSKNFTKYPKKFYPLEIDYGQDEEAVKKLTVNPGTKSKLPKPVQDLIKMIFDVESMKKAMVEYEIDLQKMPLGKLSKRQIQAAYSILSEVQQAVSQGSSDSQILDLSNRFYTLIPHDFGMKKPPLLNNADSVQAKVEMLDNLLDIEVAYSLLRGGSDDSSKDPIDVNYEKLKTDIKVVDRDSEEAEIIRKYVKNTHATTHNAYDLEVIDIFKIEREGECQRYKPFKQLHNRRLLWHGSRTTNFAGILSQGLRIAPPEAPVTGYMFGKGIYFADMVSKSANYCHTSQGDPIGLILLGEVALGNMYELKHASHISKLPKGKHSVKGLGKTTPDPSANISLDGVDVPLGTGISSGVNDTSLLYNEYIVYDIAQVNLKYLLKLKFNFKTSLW

Structure (SMILES): C=C1/C(=C\C=C2/CCC[C@]3(C)[C@@H]([C@H](C)/C=C/[C@@H](O)C4CC4)CC[C@@H]23)C[C@@H](O)C[C@@H]1O [calcipotriol]
- reduction of PASI score [1]: 77.8±9.7%

Structure (SMILES): NC(=O)c1cccnc1 [NAM, nicotinamide]
- ceramide biosynthesis, % of maximum response (human keratinocytes; NAM 1-10 μM): 75%-100%
- concentration at maximum of ceramide synthesis dose response (human keratinocytes; in vitro): ~10 µM
- increase in biosynthesis of ceramides and other stratum corneum lipids (human keratinocytes; up to): up to 5 fold
- concentration predicted to be required for significant PARP-1 inhibition (PARP-1 [2]): 50 to 100 µM
- peritumoral and tumour infiltrating CD4+ and CD8+ lymphocytes versus placebo ([3]; melanomas arising on treatment): statistically significantly increased
- rates of new non-melanoma skin cancers and actinic keratoses ([3]; oral): safe and effective in reducing the rates
- concentration required to significantly inhibit P. acnes-induced IL-8 mRNA production (IL-8): 5.0 ug/ml and ~40 μM
- reduction in IL-6 compared to untreated control (IL-6): 88%
- time to total remission of bullous pemphigoid (bullous pemphigoid): 6-8 weeks
- inhibition of melanosome transfer ([4]; 1.0 mmolL^−1 (1 mM) NAM, coculture model): 35-68%
- inhibition of melanosome transfer ([4]; NAM 10 μM, after 3 days of treatment): 14%
- pKa [5]: ~3.5 and 3.5
- concentration required for significant effects on proinflammatory cytokines [6]: 2,000 μM
- reduction in hyperpigmented lesions [7]: dose-dependent reduction in hyperpigmented lesions
- PARP-1 inhibition (PARP-1 [8]): 66%
- half-life of decrease of peak concentrations in plasma and skin [9]: approximately 90 minutes
- effect on actinic keratoses (actinic keratoses): significantly reduced actinic keratoses
- patients with AKs significantly decreased in size ([10]; after six months, 18/19 patients): 88%
- patients with complete clinical regression ([10]; seven patients): 42%

Structure (SMILES): NC[C@H]1CC[C@H](C(=O)O)CC1 [tranexamic acid]
- reduction in melasma (mMASI, MASI) scores (melasma): approximately 50%

Structure (SMILES): CCC(=O)O[C@]1(C(=O)SCF)[C@H](C)C[C@H]2[C@@H]3C[C@H](F)C4=CC(=O)C=C[C@]4(C)[C@@]3(F)[C@@H](O)C[C@@]21C [fluticasone propionate]
- saturated solubility in a range of liquid silicones [11]: appropriately low

Structure (SMILES): O=C(O)[C@H](O)[C@@H](O)[C@H](O[C@@H]1O[C@H](CO)[C@H](O)[C@H](O)[C@H]1O)[C@H](O)CO [lactobionic acid]
- decrease in human SC pH in vivo (human SC): up to 1.5 pH units
- decrease in pH at all SC depths (murine flank skin): 0.5-1.0 pH units
- logP O/W [12]: −4.8

Structure (SMILES): CCCCCCCCCCCCCCO [C14 alcohol, myristyl alcohol]
- solubility of C14 alcohol in caprylyl methicone (amount to saturate) ([13]; in caprylyl methicone): 2.30%
- solubility of C14 alcohol in propylene glycol (amount to saturate) ([13]; in propylene glycol): 2.44%
- logP O/W [12]: > 4.00

Structure (SMILES): C[C@@H]1C[C@H]2[C@@H]3CCC4=CC(=O)C=C[C@]4(C)[C@@]3(Cl)[C@@H](O)C[C@]2(C)[C@@]1(OC(=O)c1ccco1)C(=O)CCl [mometasone furoate]
- saturated solubility in a range of liquid silicones [11]: appropriately low
- reduction of acute radiation dermatitis versus emollient cream [14]: significantly more effective than emollient cream alone

Structure (SMILES): O=C1O[C@H](CO)[C@@H](O)[C@H](O)[C@H]1O [gluconolactone]
- logP O/W [12]: −4.8
